Test: xn = mol fraction of the nth substance listed
Conditions: Liquid, Vibrating tube method

CCCCn1cc[n+](C)c1.F[B-](F)(F)F [1-butyl-3-methylimidazolium tetrafluoroborate] + CO
mass density [kg/m3]
Conditions	348.15 K	373.15 K
620 kPa, x1 = 0.0433	–	797.86
620 kPa, x1 = 0.9102	–	1149.53
680 kPa, x1 = 0.0087	–	731.31
840 kPa, x1 = 0.1302	–	910.67
840 kPa, x1 = 0.7501	–	1131.82
880 kPa, x1 = 0.4988	–	1088.22
960 kPa, x1 = 0.2626	–	1006.13
5010 kPa, x1 = 0.7501	–	1134.65
5320 kPa, x1 = 0.2626	–	1009.96
5410 kPa, x1 = 0.0087	–	738.04
5410 kPa, x1 = 0.9102	–	1152.54
5450 kPa, x1 = 0.1302	–	915.31
5470 kPa, x1 = 0.4988	–	1091.64
5500 kPa, x1 = 0.0433	–	804.09
10030 kPa, x1 = 0.9102	–	1155.38
10070 kPa, x1 = 0.2626	–	1014.1
10080 kPa, x1 = 0.4988	–	1095
10280 kPa, x1 = 0.1302	–	919.98
10320 kPa, x1 = 0.7501	–	1138.17
10390 kPa, x1 = 0.0087	–	744.76
10780 kPa, x1 = 0.0433	–	810.45
15090 kPa, x1 = 0.7501	–	1141.24
15170 kPa, x1 = 0.1302	–	924.53
15230 kPa, x1 = 0.2626	–	1018.44
15390 kPa, x1 = 0.0433	–	815.67
15430 kPa, x1 = 0.4988	–	1098.81
15450 kPa, x1 = 0.0087	–	751.2
15720 kPa, x1 = 0.9102	–	1158.79
20090 kPa, x1 = 0.2626	–	1022.37
20140 kPa, x1 = 0.9102	1177.87	–
20210 kPa, x1 = 0.0433	–	820.81
20370 kPa, x1 = 0.1302	949.49	–
20420 kPa, x1 = 0.1302	–	929.19
20420 kPa, x1 = 0.2626	1040.92	–
20420 kPa, x1 = 0.7501	–	1144.57
20440 kPa, x1 = 0.0087	779.62	–
20580 kPa, x1 = 0.0087	–	757.35
20610 kPa, x1 = 0.4988	–	1102.41
20610 kPa, x1 = 0.9102	–	1161.64
24990 kPa, x1 = 0.0433	–	825.57
25080 kPa, x1 = 0.7501	–	1147.41
25180 kPa, x1 = 0.0433	846.4	–
25270 kPa, x1 = 0.1302	953.3	–
25310 kPa, x1 = 0.2626	1044.36	–
25310 kPa, x1 = 0.4988	1122.86	–
25320 kPa, x1 = 0.0087	784.47	–
25330 kPa, x1 = 0.1302	–	933.36
25340 kPa, x1 = 0.2626	–	1026.45
25340 kPa, x1 = 0.4988	–	1105.63
25580 kPa, x1 = 0.0087	–	762.96
25620 kPa, x1 = 0.7501	1164.19	–
25620 kPa, x1 = 0.9102	1180.73	–
25830 kPa, x1 = 0.9102	–	1164.62
29810 kPa, x1 = 0.1302	–	936.98
30070 kPa, x1 = 0.7501	1166.56	–
30080 kPa, x1 = 0.2626	–	1029.97
30080 kPa, x1 = 0.4988	–	1108.78
30090 kPa, x1 = 0.4988	1125.66	–
30140 kPa, x1 = 0.9102	1183.03	1167.01
30150 kPa, x1 = 0.0087	789.02	–
30160 kPa, x1 = 0.0433	850.67	–
30210 kPa, x1 = 0.2626	1047.7	–
30410 kPa, x1 = 0.7501	–	1150.55
30560 kPa, x1 = 0.1302	957.16	–
35010 kPa, x1 = 0.7501	1169.13	–
35080 kPa, x1 = 0.2626	1050.92	–
35120 kPa, x1 = 0.0087	793.42	–
35260 kPa, x1 = 0.4988	1128.6	–
35420 kPa, x1 = 0.1302	960.46	–
35740 kPa, x1 = 0.0433	855.14	–
35740 kPa, x1 = 0.9102	1185.8	–
39640 kPa, x1 = 0.0087	797.19	–
39720 kPa, x1 = 0.1302	963.19	–
39920 kPa, x1 = 0.2626	1054.02	–
39920 kPa, x1 = 0.4988	1131.18	–
39980 kPa, x1 = 0.9102	1187.84	–
39990 kPa, x1 = 0.7501	1171.65	–
40010 kPa, x1 = 0.0433	858.32	–

Reference: the NIST ThermoML archive (doi:10.1016/j.jct.2008.05.005)
